Consider six compounds from patent publication US4289777A, “Quinolonecarboxylic acid derivatives and pharmaceutical preparations thereof for treatment of an allergic disease of the respiratory tract” (Schering, Aktiengesellschaft, priority 1978, dated 1981).

Converted amounts (≈) assume the structure as drawn. Where a name gives a salt, the structure may show the parent alone. Read-outs that look alike come from different tables or passages of the source. Some results are limits rather than exact numbers.

One test relates to carrageenin test. Put plainly: carrageenin test, antiinflammatory effect. It is filed as in vivo. The source says: The inflammation-inhibitory effect can be measured by the carrageenin test (Winter, C. A., E. A. Risley and G. W. Nuss, Proc. Soc. Exp. Biol. Med. 111: 544-547 [1962]).
The subject of test [1] is passive cutaneous anaphylaxis in rats (PCA), mediator liberation. Put plainly: passive cutaneous anaphylaxis in rats (PCA), inhibition of allergic reaction. It is filed as in vivo. Particulars: iv, rat PCA, i.v. The protocol: For this purpose, rats are passively sensitized by the intracutaneous injection of various dilutions (1:8 and 1:16) of a standardized IgE-containing hyperimmune serum. After 48 hours, the compound to be tested, dissolved as the sodium salt in a physiological NaCl solution, and ovalbumin as the allergen, combined with a dye to better measure the local allergic reaction, are administered intravenously.
The measurement determines the inhibition of the allergic reaction in the presence of the test compound as compared with the allergic reaction without the inhibiting agent.

Test [2] concerns Staphylococcus aureus 30-8. Put plainly: in vitro series dilution test, antibacterial effect. It is filed as cell-based. Particulars: 308; Staphylococcus aureus 30-8, in vitro; read-out: Minimum Inhibitory Concentration. The text has this: (§1) The antibacterial effect can be measured in vitro in a series dilution test.
In test [3] the test system is Staphylococcus aureus 30-2. Described as above. Format: cell-based. Particulars: 302; Staphylococcus aureus 30-2, in vitro; read-out: Minimum Inhibitory Concentration.
Text: as §1

The subject of test [4] is Staphylococcus aureus 30-107. The description is as above. It is filed as cell-based. Particulars: 30107; Staphylococcus aureus 30-107, in vitro; read-out: Minimum Inhibitory Concentration.
Text: as §1

In test [5] the test system is Staphylococcus aureus 30-53. The test is described as above. It is filed as cell-based. Particulars: 3053; Staphylococcus aureus 30-53, in vitro; read-out: Minimum Inhibitory Concentration.
Text: as §1

For a further test, the system named is Diplococcus pneumoniae. Described as above. It is filed as cell-based. Particulars: Streptococcus pneumoniae, read-out: Minimum Inhibitory Concentration.
Text: as §1

In test [6] the test system is Staphylococcus aureus 30-64. The description is as above. It is filed as cell-based. Particulars: 3064; Staphylococcus aureus 30-64, in vitro; read-out: Minimum Inhibitory Concentration.
Text: as §1

Test [7] deals with Staphylococcus aureus 30-109. The test is described as above. Format: cell-based. The settings on record: 30109; Staphylococcus aureus 30-109, in vitro; read-out: Minimum Inhibitory Concentration.
Text: as §1

The subject of test [8] is Staphylococcus aureus 30-3. Described as above. It is filed as cell-based. Particulars: 303; Staphylococcus aureus 30-3, in vitro; read-out: Minimum Inhibitory Concentration.
Text: as §1

In test [9] the test system is Diplococcus pneumoniae and a series of strains of Staphylococcus aureus. Put plainly: in vitro series dilution test, antibacterial effect (summary over all bacteria). It is filed as cell-based. The settings on record: in words.
Text: as §1

In another test the test system is mast cells of the lungs. Particulars: upon inhalation; J. Med. Chem. 15: 583 [1972]; cited from earlier work.
Setting [10] is: IgE serum dilution 1:8, dissolved as the sodium salt, read-out: % Inhibition, IgE 1:8.
[11] abbreviates: IgE serum dilution 1:16, dissolved as the sodium salt, read-out: % Inhibition, IgE 1:16.

The term % Inhibition denotes how much of the control response was suppressed. For the compound “1,3-Bis(1-ethoxy-3-carboxy-1,4-dihydro-4-oxo-7-quinolyloxy)-2-propanol”, the “% Inhibition” value came out at 44% in the test with carrageenin test (i.v., 10 mg./kg.) and 28% in the test with carrageenin test (p.o., 75 mg./kg.).
The term inhibition denotes the change of the read-out against control, counted positive when it falls. `CCCCn1cc(C(=O)O)c(=O)c2ccc(OCC(O)COc3ccc4c(=O)c(C(=O)O)cn(CCCC)c4c3)cc21` [1,3-Bis(1-butyl-3-carboxy-1,4-dihydro-4-oxo-7-quinolyloxy)-2-propanol]: the inhibition at 10 mg/kg in test [1] (setting [10]) turned out to be 71%; in [1] (setting [11]) it was 85%.
For `CCn1cc(C(=O)O)c(=O)c2ccc(OCC(O)COc3ccc4c(=O)c(C(=O)O)cn(CC)c4c3)cc21` [1,3-Bis(1-ethyl-3-carboxy-1,4-dihydro-4-oxo-7-quinolyloxy)-2-propanol], the inhibition at 5 mg/kg came to 59% in [1] (setting [10]) and 69% in test [1] (setting [11]). Further, the inhibition at 10 mg/kg in test [1] (setting [10]) stood at 84%; in [1] (setting [11]), 90%. Also, the MIC in test [2] turned out to be 12.5 µg/mL (≈ 23.9 µM); in test [3], 25 µg/mL (≈ 47.8 µM); in test [4], 50 µg/mL (≈ 95.7 µM); in test [5], 50 µg/mL (≈ 95.7 µM); in the test on Diplococcus pneumoniae, 50 µg/mL (≈ 95.7 µM); in test [6], 50 µg/mL (≈ 95.7 µM). The values for the MIC in test [7] and in test [8] were 25 µg/mL (≈ 47.8 µM) and 12.5 µg/mL (≈ 23.9 µM), respectively.
Take `Cn1cc(C(=O)O)c(=O)c2ccc(OCC(O)COc3ccc4c(=O)c(C(=O)O)cn(C)c4c3)cc21` [1,3-Bis(3-carboxy-1,4-dihydro-1-methyl-4-oxo-7-quinolyloxy)-2-propanol]: the values for the inhibition at 5 mg/kg in [1] (setting [10]) and in [1] (setting [11]) were 62% and 69%, respectively.
For `O=C(O)c1cc(=O)c2c(OCC(O)COc3cccc4oc(C(=O)O)cc(=O)c34)cccc2o1` [Cromoglycic Acid, reference compound], the inhibition at 5 mg/kg in test [1] (setting [10]) is 63%; in test [1] (setting [11]), 67%. Also, the inhibition at 10 mg/kg was determined as 60% in [1] (setting [10]); 84% in [1] (setting [11]); 10% in the test with carrageenin test (iv, 10 mg./kg.). Besides, in the test on carrageenin test (in words), the antiinflammatory activity entry is given as “only an extremely weak efficacy, or even no corresponding efficacy at all”. The inhibition at 75 mg/kg with carrageenin test (po, 75 mg./kg.) stood at 0%. Moreover, the MIC (in test [2]; in [3]; in [4]; in test [5]; in the test with Diplococcus pneumoniae; in test [6]) was > 100 µg/mL throughout. Also, the MIC in [7] and in [8] was > 100 µg/mL throughout. In test [9], the antibacterial activity result is “ineffective against all bacteria investigated”.
Turning to `O=C(O)c1cc(=O)c2c(OCC(O)COc3cccc4oc(C(=O)O)cc(=O)c34)cccc2o1` [sodium salt of cromoglycic acid], the “inhibition of liberation of mediators triggering bronchoconstriction, such as histamine and SRS-A” value in the test with mast cells of the lungs is “inhibit the liberation of mediators triggering bronchoconstriction”.
